Reference: EP4104902B1, “COMPOUNDS AND M[…] SAME” (priority 2020, dated 2021)
pIC50: −log10 of the molar value. Like-named read-outs stand apart in the source and are kept apart here.

Key:
[1] = test system: recombinant rabies virus 1088 strain expressing Gaussia Luciferase (GLuc) (1088/GLuc); assay type: cell-based
rabies virus = settings: mouse, in vivo; cited from earlier work
[2] = test system: mouse neuroblastoma cell strain Neuro-2A; experiment: Anti-cancer cell activity evaluation (minimum inhibitory concentration with respect to cells); assay type: cell-based; settings: MIC, compounds of formula XXIIB and formula XXIIF, 3 days

Row | Compound | pIC50 ([1]; read-out: IC50) | prophylactic effect (rabies virus) | pIC50 ([1]; read-out: Anti-rabies activity) | Anti-cancer cell activity [2]
1 | NC(=O)c1nc(F)c[nH]c1=O [Compound T-705, Favipiravir] | 4.52 | significant prophylactic effect was confirmed and not | – | –
2 | CC(C)CN1CC2CC3C=NC2(C(=O)NCc2ccccc2)C1C3CCCCc1ccccc1 (stereo not drawn) [IIB-346] | – | – | > 5.30 | b (b if greater than 10 µM and less than or equal to 20 µM)
3 | CC(C)CCN1CC2CC3C=NC2(C(=O)NCc2cccc(F)c2)C1C3CCCc1ccccc1 (stereo not drawn) [IIB-347] | – | – | > 5.30 | c (c if greater than 20 µM and less than or equal to 40 µM)
